Experimental data reported in article PMC4508061, “Selectivity Profiling and Biological Activity of Novel β-Carbolines as Potent and Selective DYRK1 Kinase Inhibitors” (PLoS ONE, 2015).
Read-outs that look alike come from different tables or passages of the source.

Assays:
JNK2 = JNK2 (Homo sapiens, UniProt P45984); test: ProQinase radiometric kinase panel; conditions: mean of 2 exp.
Experimental: (§1) Gini coefficients were calculated and the Lorenz curve (Fig 3B) was plotted by applying the Microsoft Excel spreadsheet provided by Graczyk [44].
radiometric protein kinase assays.

MATK = MATK (Homo sapiens, UniProt P42679); test: ProQinase radiometric kinase panel; conditions: mean of 2 exp.
TYK2 = TYK2 (Homo sapiens, UniProt P29597); test: ProQinase radiometric kinase panel; conditions: mean of 2 exp.
PBK = PBK (Homo sapiens, UniProt Q96KB5); test: ProQinase radiometric kinase panel; conditions: mean of 2 exp.
JNK1 = JNK1 (Homo sapiens, UniProt P45983); test: ProQinase radiometric kinase panel; conditions: mean of 2 exp.
SRPK2 = SRPK2 (Homo sapiens, UniProt P78362); test: ProQinase radiometric kinase panel; conditions: mean of 2 exp.
CAMKK1 = CAMKK1 (Homo sapiens, UniProt Q8N5S9); test: ProQinase radiometric kinase panel; conditions: mean of 2 exp.
LIMK2 = LIMK2 (Homo sapiens, UniProt P53671); test: ProQinase radiometric kinase panel; conditions: mean of 2 exp.
ROCK2 = ROCK2 (Homo sapiens, UniProt O75116); test: ProQinase radiometric kinase panel; conditions: mean of 2 exp.
CK2-alpha2 = CK2-alpha2 (Homo sapiens, UniProt P19784); test: ProQinase radiometric kinase panel; conditions: mean of 2 exp.
Cell viability XTT assay [1] = type: cell-based; conditions: rat, PC12 cells, read-out: Viability of treated cells relative to untreated control
PC12 cells = test: Cell viability XTT assay; type: cell-based; conditions: PC12, up to 10 μM, 3 days
CDK4/CycD3 = CDK4/CycD3 (Homo sapiens, UniProt P11802); test: ProQinase radiometric kinase panel; conditions: mean of 2 exp.
MAP4K4 = MAP4K4 (Homo sapiens, UniProt O95819); test: ProQinase radiometric kinase panel; conditions: mean of 2 exp.
YES = YES (Homo sapiens, UniProt P07947); test: ProQinase radiometric kinase panel; conditions: mean of 2 exp.
ERK1 = ERK1 (Homo sapiens, UniProt P27361); test: ProQinase radiometric kinase panel; conditions: mean of 2 exp.
ABL1 = ABL1 (Homo sapiens, UniProt P00519); test: ProQinase radiometric kinase panel; conditions: mean of 2 exp.
RAF1 (Y340D/Y341D) = RAF1 (Y340D/Y341D) (Homo sapiens, UniProt P04049, Y340D/Y341D); test: ProQinase radiometric kinase panel; conditions: mean of 2 exp.
MAPKAPK3 = MAPKAPK3 (Homo sapiens, UniProt Q16644); test: ProQinase radiometric kinase panel; conditions: mean of 2 exp.
PIM1 = PIM1 (Homo sapiens, UniProt P11309); test: ProQinase radiometric kinase panel; conditions: mean of 2 exp.
IRAK4 = IRAK4 (Homo sapiens, UniProt Q9NWZ3); test: ProQinase radiometric kinase panel; conditions: mean of 2 exp.
RIPK5 = RIPK5 (Homo sapiens, UniProt Q6XUX3); test: ProQinase radiometric kinase panel; conditions: mean of 2 exp.
PKA = PKA (Homo sapiens, UniProt P17612); test: ProQinase radiometric kinase panel; conditions: mean of 2 exp.
TEC = TEC (Homo sapiens, UniProt P42680); test: ProQinase radiometric kinase panel; conditions: mean of 2 exp.
Cell viability XTT assay [2] = type: cell-based; conditions: human, HeLa cells, read-out: Viability of treated cells relative to untreated control
HeLa cells = test: Cell viability XTT assay; type: cell-based; conditions: up to 10 μM, 3 days
JAK3 = JAK3 (Homo sapiens, UniProt P52333); test: ProQinase radiometric kinase panel; conditions: mean of 2 exp.
EPHB1 = EPHB1 (Homo sapiens, UniProt P54762); test: ProQinase radiometric kinase panel; conditions: mean of 2 exp.
CDK1/CycE1 = CDK1/CycE1 (Homo sapiens, UniProt P06493); test: ProQinase radiometric kinase panel; conditions: mean of 2 exp.
PAK4 = PAK4 (Homo sapiens, UniProt O96013); test: ProQinase radiometric kinase panel; conditions: mean of 2 exp.
GSG2 (Haspin) = GSG2 (Haspin) (Homo sapiens, UniProt Q8TF76); test: ProQinase radiometric kinase panel; conditions: mean of 2 exp.
Aurora-C = Aurora-C (Homo sapiens, UniProt Q9UQB9); test: ProQinase radiometric kinase panel; conditions: mean of 2 exp.
JAK1 = JAK1 (Homo sapiens, UniProt P23458); test: ProQinase radiometric kinase panel; conditions: mean of 2 exp.
SGK1 = SGK1 (Homo sapiens, UniProt O00141); test: ProQinase radiometric kinase panel; conditions: mean of 2 exp.
CAMK4 = CAMK4 (Homo sapiens, UniProt Q16566); test: ProQinase radiometric kinase panel; conditions: mean of 2 exp.
PHKG2 = PHKG2 (Homo sapiens, UniProt P15735); test: ProQinase radiometric kinase panel; conditions: mean of 2 exp.
JNK3 = JNK3 (Homo sapiens, UniProt P53779); test: ProQinase radiometric kinase panel; conditions: mean of 2 exp.
Experimental: as §1
radiometric protein kinase assays.

VEGF-R3 = VEGF-R3 (Homo sapiens, UniProt P35916); test: ProQinase radiometric kinase panel; conditions: mean of 2 exp.
ZAK = ZAK (Homo sapiens, UniProt Q9NYL2); test: ProQinase radiometric kinase panel; conditions: mean of 2 exp.

PIM1, sequence (P11309 whole entry): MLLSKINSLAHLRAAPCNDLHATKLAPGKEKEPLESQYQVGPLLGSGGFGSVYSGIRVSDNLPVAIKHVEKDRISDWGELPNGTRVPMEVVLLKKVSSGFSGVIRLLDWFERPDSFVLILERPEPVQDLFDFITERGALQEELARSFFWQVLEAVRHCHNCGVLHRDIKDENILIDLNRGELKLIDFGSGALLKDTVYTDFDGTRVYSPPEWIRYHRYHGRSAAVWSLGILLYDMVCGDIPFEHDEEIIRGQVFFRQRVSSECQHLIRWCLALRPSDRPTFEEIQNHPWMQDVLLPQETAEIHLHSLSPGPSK
PAK4, sequence (O96013 whole entry): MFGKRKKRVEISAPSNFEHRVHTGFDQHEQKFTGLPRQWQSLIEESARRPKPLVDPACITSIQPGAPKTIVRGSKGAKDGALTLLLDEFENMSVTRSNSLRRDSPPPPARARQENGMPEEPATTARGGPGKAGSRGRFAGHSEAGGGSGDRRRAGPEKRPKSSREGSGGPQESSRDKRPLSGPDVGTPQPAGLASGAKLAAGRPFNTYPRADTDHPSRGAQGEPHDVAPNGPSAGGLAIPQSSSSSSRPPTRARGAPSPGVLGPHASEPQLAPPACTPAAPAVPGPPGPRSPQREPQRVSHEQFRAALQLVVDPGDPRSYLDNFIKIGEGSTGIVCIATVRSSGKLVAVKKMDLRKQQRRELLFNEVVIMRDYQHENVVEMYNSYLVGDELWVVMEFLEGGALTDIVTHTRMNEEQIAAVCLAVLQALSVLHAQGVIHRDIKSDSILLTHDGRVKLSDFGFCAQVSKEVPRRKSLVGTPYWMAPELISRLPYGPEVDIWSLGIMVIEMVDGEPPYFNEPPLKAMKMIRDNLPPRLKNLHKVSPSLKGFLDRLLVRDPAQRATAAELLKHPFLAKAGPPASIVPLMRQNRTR
JNK2, sequence (P45984 whole entry): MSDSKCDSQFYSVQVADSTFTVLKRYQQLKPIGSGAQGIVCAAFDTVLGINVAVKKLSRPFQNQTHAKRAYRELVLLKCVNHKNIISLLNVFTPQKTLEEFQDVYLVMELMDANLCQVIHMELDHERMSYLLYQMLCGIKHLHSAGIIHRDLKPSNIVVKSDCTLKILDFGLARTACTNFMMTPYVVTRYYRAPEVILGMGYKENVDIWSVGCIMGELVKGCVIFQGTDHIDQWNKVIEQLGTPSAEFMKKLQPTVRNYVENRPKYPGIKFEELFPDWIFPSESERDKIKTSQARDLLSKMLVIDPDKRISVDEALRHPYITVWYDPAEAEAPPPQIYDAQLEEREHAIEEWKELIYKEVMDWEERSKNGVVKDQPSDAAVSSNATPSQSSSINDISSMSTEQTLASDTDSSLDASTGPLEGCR
PHKG2, sequence (P15735 whole entry): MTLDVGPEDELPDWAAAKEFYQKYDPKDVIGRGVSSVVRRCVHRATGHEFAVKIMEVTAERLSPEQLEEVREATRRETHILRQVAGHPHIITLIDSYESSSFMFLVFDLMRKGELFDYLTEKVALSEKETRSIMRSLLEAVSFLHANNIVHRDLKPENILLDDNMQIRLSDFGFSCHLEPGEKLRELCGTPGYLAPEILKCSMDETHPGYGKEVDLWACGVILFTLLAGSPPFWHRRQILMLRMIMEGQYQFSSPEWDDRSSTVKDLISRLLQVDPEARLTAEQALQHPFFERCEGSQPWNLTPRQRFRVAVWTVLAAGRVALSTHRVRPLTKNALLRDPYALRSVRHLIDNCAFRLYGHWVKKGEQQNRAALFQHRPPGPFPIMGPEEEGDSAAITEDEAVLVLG
IRAK4, sequence (Q9NWZ3 whole entry): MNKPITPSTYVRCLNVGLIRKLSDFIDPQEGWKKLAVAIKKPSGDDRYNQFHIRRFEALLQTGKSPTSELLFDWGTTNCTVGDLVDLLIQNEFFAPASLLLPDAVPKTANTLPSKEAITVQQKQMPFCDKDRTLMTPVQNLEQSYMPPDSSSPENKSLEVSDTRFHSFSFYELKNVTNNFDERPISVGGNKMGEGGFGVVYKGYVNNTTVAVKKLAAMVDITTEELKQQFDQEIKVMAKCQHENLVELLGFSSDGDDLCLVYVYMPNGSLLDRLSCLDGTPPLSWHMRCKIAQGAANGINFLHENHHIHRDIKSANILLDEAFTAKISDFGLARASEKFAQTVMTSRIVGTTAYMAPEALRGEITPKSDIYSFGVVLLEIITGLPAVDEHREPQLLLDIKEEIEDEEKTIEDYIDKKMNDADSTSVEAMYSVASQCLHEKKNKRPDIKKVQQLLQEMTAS
JAK1, sequence (P23458 whole entry): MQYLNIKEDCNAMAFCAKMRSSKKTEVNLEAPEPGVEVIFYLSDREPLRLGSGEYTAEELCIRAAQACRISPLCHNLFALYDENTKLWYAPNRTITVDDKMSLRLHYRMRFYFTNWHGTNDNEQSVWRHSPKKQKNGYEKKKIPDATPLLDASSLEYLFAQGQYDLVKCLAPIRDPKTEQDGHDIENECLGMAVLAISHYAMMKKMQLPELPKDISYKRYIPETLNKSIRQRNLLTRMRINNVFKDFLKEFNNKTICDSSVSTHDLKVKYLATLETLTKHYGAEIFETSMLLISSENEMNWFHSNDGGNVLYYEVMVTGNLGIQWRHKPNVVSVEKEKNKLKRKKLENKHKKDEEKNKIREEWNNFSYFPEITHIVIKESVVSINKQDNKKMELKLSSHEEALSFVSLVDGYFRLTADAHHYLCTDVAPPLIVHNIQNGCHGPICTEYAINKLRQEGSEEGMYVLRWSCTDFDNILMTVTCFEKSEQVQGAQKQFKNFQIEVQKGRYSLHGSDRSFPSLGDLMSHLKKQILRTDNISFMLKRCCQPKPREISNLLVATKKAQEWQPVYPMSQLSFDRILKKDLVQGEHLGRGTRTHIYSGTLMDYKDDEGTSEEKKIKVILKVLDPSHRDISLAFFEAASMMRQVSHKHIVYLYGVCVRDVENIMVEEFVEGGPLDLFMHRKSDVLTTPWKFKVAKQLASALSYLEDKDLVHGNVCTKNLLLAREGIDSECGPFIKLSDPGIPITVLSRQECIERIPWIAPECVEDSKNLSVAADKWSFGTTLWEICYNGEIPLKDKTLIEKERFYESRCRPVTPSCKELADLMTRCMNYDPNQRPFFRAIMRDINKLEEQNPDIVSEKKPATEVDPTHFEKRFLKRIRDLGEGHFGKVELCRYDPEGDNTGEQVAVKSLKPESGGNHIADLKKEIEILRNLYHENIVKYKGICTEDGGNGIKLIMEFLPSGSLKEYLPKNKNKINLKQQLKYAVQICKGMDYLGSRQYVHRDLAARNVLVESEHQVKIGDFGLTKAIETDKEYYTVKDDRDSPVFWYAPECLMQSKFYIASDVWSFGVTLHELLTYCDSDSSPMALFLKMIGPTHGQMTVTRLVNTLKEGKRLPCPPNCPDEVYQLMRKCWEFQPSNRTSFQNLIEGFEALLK
TEC, sequence (P42680 whole entry): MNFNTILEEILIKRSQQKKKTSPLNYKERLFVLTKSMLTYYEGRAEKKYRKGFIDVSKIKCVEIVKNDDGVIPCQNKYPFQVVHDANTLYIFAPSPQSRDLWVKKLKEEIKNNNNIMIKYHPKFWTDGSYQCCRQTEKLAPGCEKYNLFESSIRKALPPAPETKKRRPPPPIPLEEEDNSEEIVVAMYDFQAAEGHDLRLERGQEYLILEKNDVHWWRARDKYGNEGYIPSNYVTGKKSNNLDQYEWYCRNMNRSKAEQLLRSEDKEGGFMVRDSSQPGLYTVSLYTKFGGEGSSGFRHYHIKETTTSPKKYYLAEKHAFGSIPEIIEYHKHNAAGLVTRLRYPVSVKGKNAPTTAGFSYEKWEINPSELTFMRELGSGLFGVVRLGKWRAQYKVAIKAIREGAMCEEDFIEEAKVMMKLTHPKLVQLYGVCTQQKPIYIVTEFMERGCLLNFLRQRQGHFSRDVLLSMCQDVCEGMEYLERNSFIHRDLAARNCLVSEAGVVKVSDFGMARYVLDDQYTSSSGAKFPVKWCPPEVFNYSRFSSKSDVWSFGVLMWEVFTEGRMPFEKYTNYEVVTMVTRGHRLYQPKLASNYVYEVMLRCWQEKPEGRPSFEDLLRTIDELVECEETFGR
CDK4/CycD3, sequence (P11802 whole entry): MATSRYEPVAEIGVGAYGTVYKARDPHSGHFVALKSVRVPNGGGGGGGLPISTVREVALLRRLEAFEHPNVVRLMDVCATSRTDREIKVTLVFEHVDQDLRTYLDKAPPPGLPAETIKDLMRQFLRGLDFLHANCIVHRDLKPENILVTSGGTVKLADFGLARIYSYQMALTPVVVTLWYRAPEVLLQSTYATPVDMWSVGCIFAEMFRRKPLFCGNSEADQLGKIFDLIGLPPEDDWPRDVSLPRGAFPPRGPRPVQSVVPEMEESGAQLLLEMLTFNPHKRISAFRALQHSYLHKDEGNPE
CDK4/CycD3, sequence (P30281 whole entry partner): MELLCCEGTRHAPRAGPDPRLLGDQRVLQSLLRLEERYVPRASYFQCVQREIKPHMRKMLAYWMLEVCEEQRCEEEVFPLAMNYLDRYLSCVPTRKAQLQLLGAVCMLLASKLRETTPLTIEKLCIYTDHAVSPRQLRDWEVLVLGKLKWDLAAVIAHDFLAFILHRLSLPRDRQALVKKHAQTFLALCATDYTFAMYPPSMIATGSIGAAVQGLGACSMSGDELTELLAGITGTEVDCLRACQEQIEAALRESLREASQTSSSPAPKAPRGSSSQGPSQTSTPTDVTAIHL
CK2-alpha2, sequence (P19784 whole entry): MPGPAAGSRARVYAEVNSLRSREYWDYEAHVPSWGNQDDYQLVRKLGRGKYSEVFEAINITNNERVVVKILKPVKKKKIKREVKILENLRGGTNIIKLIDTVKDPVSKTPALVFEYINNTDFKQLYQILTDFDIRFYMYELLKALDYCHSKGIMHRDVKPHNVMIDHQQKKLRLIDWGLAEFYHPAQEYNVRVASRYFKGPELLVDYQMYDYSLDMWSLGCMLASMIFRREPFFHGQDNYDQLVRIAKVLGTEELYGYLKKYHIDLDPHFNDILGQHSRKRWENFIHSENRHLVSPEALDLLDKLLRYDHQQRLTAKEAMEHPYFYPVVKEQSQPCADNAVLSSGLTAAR

residual activity at 1 µM, Mean (JNK2): 100 % of control
residual activity at 1 µM, Mean (MATK): 102 % of control
residual activity at 1 µM, Mean (TYK2): 96 % of control
residual activity at 1 µM, Mean (PBK): 94 % of control
residual activity at 1 µM, Mean (JNK1): 99 % of control
residual activity at 1 µM, Mean (SRPK2): 106 % of control
residual activity at 1 µM, Mean (CAMKK1): 89 % of control
residual activity at 1 µM, Mean (LIMK2): 94 % of control
residual activity at 1 µM, Mean (ROCK2): 79 % of control
residual activity at 1 µM, Mean (CK2-alpha2): 101 % of control
residual activity at 1 µM, Mean (CDK4/CycD3): 89 % of control
residual activity at 1 µM, Mean (MAP4K4): 85 % of control
residual activity at 1 µM, Mean (YES): 83 % of control
residual activity at 1 µM, Mean (ERK1): 87 % of control
residual activity at 1 µM, Mean (ABL1): 95 % of control
residual activity at 1 µM, Mean (RAF1 (Y340D/Y341D)): 99 % of control
residual activity at 1 µM, Mean (MAPKAPK3): 94 % of control
residual activity at 1 µM, Mean (PIM1): 41 % of control
residual activity at 1 µM, Mean (IRAK4): 92 % of control
residual activity at 1 µM, Mean (RIPK5): 91 % of control
residual activity at 1 µM, Mean (PKA): 105 % of control
residual activity at 1 µM, Mean (TEC): 93 % of control
residual activity at 1 µM, Mean (JAK3): 101 % of control
residual activity at 1 µM, Mean (EPHB1): 89 % of control
residual activity at 1 µM, Mean (CDK1/CycE1): 93 % of control
residual activity at 1 µM, Mean (PAK4): 94 % of control
residual activity at 1 µM, Mean (GSG2 (Haspin)): 5 % of control
residual activity at 1 µM, Mean (Aurora-C): 97 % of control
residual activity at 1 µM, Mean (JAK1): 93 % of control
residual activity at 1 µM, Mean (SGK1): 91 % of control
residual activity at 1 µM, Mean (CAMK4): 111 % of control
residual activity at 1 µM, Mean (PHKG2): 94 % of control
residual activity at 1 µM, Mean (JNK3): 82 % of control
residual activity at 1 µM, Mean (VEGF-R3): 93 % of control
residual activity at 1 µM, Mean (ZAK): 94 % of control
SMILES: COc1ccc2c3ccnc(Cl)c3n(CC#N)c2c1 [AnnH75]
viability at 3 days, 1 µM (Cell viability XTT assay [1]; PC12, 1 μM): 94%
viability at 3 days, 3 µM (Cell viability XTT assay [1]; PC12, 3 μM): 100%
viability at 3 days, 10 µM (Cell viability XTT assay [1]; PC12, 10 μM): 95%
cytotoxicity (PC12 cells): minimal cytotoxicity
viability at 3 days, 1 µM (Cell viability XTT assay [2]; 1 μM): 100%
viability at 3 days, 3 µM (Cell viability XTT assay [2]; 3 μM): 93%
cytotoxicity (HeLa cells): minimal cytotoxicity
